The values that follow are results of earlier work, collected in patent publication US7501533B2, “Process for preparing lysophosphatidylcholine” (Chem SpA, priority 2004, dated 2009).

In this data set the test system is rats. As to conditions: from Sax and others, Dangerous Properties of Industrial Materials, edition VII.

With `CCC[CH2][Sn](=[O])[CH2]CCC` [dibutyltin oxide], the “LD50 (acute oral toxicity)” value is recorded as “LD50 = 44.9 mg/kg”.

Regarding `CCCCCCC[CH2][Sn](=[O])[CH2]CCCCCCC` [dioctyltin oxide], the “LD50 (acute oral toxicity)” value was “LD50 = 2500 mg/kg”.
